# Non-standard residues stand in square brackets, D forms with d. Residues, ends and D or L forms follow the SMILES beside them. Ala(4-thiazolyl) = N[C@@H](Cc1cscn1)C(=O)O; Chg = N[C@H](C(=O)O)C1CCCCC1; Phg = N[C@H](C(=O)O)c1ccccc1; Nle = CCCC[C@H](N)C(=O)O
# How the values were obtained:
# [1] = Solubility testing of exendin-4 derivatives (HPLC-UV of supernatant); type: physicochemical; details: pH 7.4
# Experimental: Prior to the testing of solubility and stability of a peptide batch, its content was determined. Therefore, two parameters were investigated, its purity (HPLC-UV) and the amount of salt load of the batch (ion chromatography).
# HPLC-UV was performed after 2 h of gentle agitation from the supernatant, which was obtained by 20 min of centrifugation at 4000 rpm.
# [2] = molecular target: T1, human glucagon receptor (hGLUC R) (Homo sapiens, UniProt P47871); experiment: cAMP response (HTRF) of HEK-293 cells stably expressing human glucagon receptor; type: cell-based; details: Table 4; read-out: EC50 hGLUC R
# T1 construct: expressed in transfected cells; host or cells: HEK-293
# T1 sequence (P47871 26-477): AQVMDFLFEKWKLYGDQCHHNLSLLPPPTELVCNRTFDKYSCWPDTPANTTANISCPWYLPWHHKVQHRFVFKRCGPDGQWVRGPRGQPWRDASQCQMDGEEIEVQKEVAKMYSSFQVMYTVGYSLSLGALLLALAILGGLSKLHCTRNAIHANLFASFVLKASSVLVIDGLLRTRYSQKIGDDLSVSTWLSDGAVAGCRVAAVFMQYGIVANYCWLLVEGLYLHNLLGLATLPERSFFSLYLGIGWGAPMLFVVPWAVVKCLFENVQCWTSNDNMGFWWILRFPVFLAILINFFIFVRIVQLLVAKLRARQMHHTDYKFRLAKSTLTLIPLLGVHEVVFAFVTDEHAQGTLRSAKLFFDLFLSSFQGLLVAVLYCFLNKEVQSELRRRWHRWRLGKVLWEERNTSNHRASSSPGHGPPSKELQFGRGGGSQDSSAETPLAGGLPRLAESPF
# Experimental: (§1) cAMP content of cells was determined using a kit from Cisbio Corp. (cat. no. 62AM4PEC) based on HTRF (Homogenous Time Resolved Fluorescence). For preparation, cells were split into T175 culture flasks and grown overnight to near confluency in medium (DMEM/10% FBS). Medium was then removed and cells washed with PBS lacking calcium and magnesium, followed by proteinase treatment with accutase (Sigma-Aldrich cat. no. A6964). Detached cells were washed and resuspended in assay buffer (1×HBSS; 20 mM HEPES, 0.1% BSA, 2 mM IBMX) and cellular density determined. They were then diluted to 400000 cells/ml and 25 μl-aliquots dispensed into the wells of 96-well plates. For measurement, 25 μl of test compound in assay buffer was added to the wells, followed by incubation for 30 minutes at room temperature.
# [3] = molecular target: T2, human GLP-1 receptor (hGLP-1 R) (Homo sapiens, UniProt P43220); experiment: cAMP response (HTRF) of HEK-293 cells stably expressing human GLP-1 receptor; type: cell-based; details: Table 4
# T2 construct: expressed in transfected cells; host or cells: HEK-293
# T2 sequence (P43220 24-463): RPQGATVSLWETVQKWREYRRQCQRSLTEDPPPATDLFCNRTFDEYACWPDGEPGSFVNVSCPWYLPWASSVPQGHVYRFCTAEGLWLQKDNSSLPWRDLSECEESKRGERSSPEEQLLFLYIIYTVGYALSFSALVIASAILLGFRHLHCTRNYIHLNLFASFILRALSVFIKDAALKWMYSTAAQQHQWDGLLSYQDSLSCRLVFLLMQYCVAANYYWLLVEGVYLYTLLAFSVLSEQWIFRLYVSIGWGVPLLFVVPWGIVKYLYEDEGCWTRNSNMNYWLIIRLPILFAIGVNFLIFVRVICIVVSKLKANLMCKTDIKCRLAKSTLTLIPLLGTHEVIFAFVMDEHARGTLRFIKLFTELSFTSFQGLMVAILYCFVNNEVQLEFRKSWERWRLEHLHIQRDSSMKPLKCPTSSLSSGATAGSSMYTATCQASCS
# Experimental: as §1, with “temperature. After addition of HTRF reagents diluted in lysis buffer (kit components), the plates were incubated for 1 hr, followed by measurement of the fluorescence ratio at 665/620 nm. In vitro potency of agonists was quantified by determining the concentrations that caused 50% activation of maximal response (EC50).” for “temperature.”
Compound,Solubility (pH7.4) [mg/ml] ([1]; 2 h),solubility at 2 h [1],EC50 [2],EC50 [3]
"CCCC[C@H](NC(=O)[C@H](CCC(N)=O)NC(=O)[C@H](CCCCN)NC(=O)[C@H](CO)NC(=O)[C@@H](NC(=O)[C@H](CC(=O)O)NC(=O)[C@H](CO)NC(=O)[C@@H](NC(=O)[C@H](Cc1ccccc1)NC(=O)[C@@H](NC(=O)CNC(=O)[C@H](CCC(N)=O)NC(=O)[C@H](CO)NC(=O)[C@@H](N)Cc1cscn1)[C@@H](C)O)[C@@H](C)O)C1CCCCC1)C(=O)N[C@@H](CCC(=O)O)C(=O)N[C@@H](CO)C(=O)N[C@@H](CCCNC(=N)N)C(=O)N[C@@H](CCCNC(=N)N)C(=O)N[C@@H](C)C(=O)N[C@@H](CCC(N)=O)C(=O)N[C@@H](CC(=O)O)C(=O)N[C@@H](Cc1ccccc1)C(=O)N[C@H](C(=O)N[C@@H](CCC(=O)O)C(=O)N[C@@H](Cc1c[nH]c2ccccc12)C(=O)N[C@@H](CC(C)C)C(=O)N[C@@H](CC(C)C)C(=O)N[C@@H](C)C(=O)N[C@H](C(=O)NCC(=O)N1CCC[C@H]1C(=O)N[C@@H](CCC(=O)O)C(=O)N[C@@H](CO)C(=O)NCC(=O)N[C@@H](C)C(=O)N1CCC[C@H]1C(=O)N1CCC[C@H]1C(=O)N1CCC[C@H]1C(=O)N[C@@H](CO)C(=O)O)[C@@H](C)O)[C@@H](C)CC [SEQ ID NO 20, Tza-S-Q-G-T-F-T-S-D-Chg-S-K-Q-Nle-ESRRAQDFIEWLLATGPESGAPPPS-OH] (H-[Ala(4-thiazolyl)]SQGTFTSD[Chg]SKQ[Nle]ESRRAQDFIEWLLATGPESGAPPPS-OH; N-terminus assumed)",>10.0 mg/ml,,,
"CC[C@H](C)[C@H](NC(=O)[C@H](Cc1ccccc1)NC(=O)[C@H](CC(=O)O)NC(=O)[C@H](CCC(N)=O)NC(=O)[C@H](C)NC(=O)[C@H](CCCNC(=N)N)NC(=O)[C@H](CCCNC(=N)N)NC(=O)[C@H](CO)NC(=O)[C@H](CCC(=O)O)NC(=O)[C@H](CC(C)C)NC(=O)[C@H](CCC(N)=O)NC(=O)[C@H](CCCCN)NC(=O)[C@H](CO)NC(=O)[C@@H](NC(=O)[C@H](CC(=O)O)NC(=O)[C@H](CO)NC(=O)[C@@H](NC(=O)[C@H](Cc1ccccc1)NC(=O)[C@@H](NC(=O)CNC(=O)[C@H](CCC(N)=O)NC(=O)[C@H](CO)NC(=O)[C@@H](N)Cc1cscn1)[C@@H](C)O)[C@@H](C)O)C1CCCCC1)C(=O)N[C@@H](CCC(=O)O)C(=O)N[C@@H](Cc1c[nH]c2ccccc12)C(=O)N[C@@H](CC(C)C)C(=O)N[C@@H](CC(C)C)C(=O)N[C@@H](C)C(=O)N[C@H](C(=O)NCC(=O)N1CCC[C@H]1C(=O)N[C@@H](CCC(=O)O)C(=O)N[C@@H](CO)C(=O)NCC(=O)N[C@@H](C)C(=O)N1CCC[C@H]1C(=O)N1CCC[C@H]1C(=O)N1CCC[C@H]1C(=O)N[C@@H](CO)C(=O)O)[C@@H](C)O [SEQ ID NO 23, Tza-S-Q-G-T-F-T-S-D-Chg-SKQLESRRAQDFIEWLLATGPESGAPPPS-OH] (H-[Ala(4-thiazolyl)]SQGTFTSD[Chg]SKQLESRRAQDFIEWLLATGPESGAPPPS-OH; N-terminus assumed)",,> 10000 µg/mL,,
"CC[C@H](C)[C@H](NC(=O)[C@H](Cc1ccccc1)NC(=O)[C@H](CCC(=O)O)NC(=O)[C@H](CCC(N)=O)NC(=O)[C@H](C)NC(=O)[C@H](CCCNC(=N)N)NC(=O)[C@H](CCCNC(=N)N)NC(=O)[C@H](CO)NC(=O)[C@H](CCC(=O)O)NC(=O)[C@H](CC(C)C)NC(=O)[C@H](CCC(N)=O)NC(=O)[C@H](CCCCN)NC(=O)[C@H](CO)NC(=O)[C@@H](NC(=O)[C@H](CC(=O)O)NC(=O)[C@H](CO)NC(=O)[C@@H](NC(=O)[C@H](Cc1ccccc1)NC(=O)[C@@H](NC(=O)CNC(=O)[C@H](CCC(N)=O)NC(=O)[C@H](CO)NC(=O)[C@@H](N)Cc1cscn1)[C@@H](C)O)[C@@H](C)O)c1ccccc1)C(=O)N[C@@H](CCC(=O)O)C(=O)N[C@@H](Cc1c[nH]c2ccccc12)C(=O)N[C@@H](CC(C)C)C(=O)N[C@@H](CC(C)C)C(=O)N[C@@H](C)C(=O)N[C@H](C(=O)NCC(=O)N1CCC[C@H]1C(=O)N[C@@H](CCC(=O)O)C(=O)N[C@@H](CO)C(=O)NCC(=O)N[C@@H](C)C(=O)N1CCC[C@H]1C(=O)N1CCC[C@H]1C(=O)N1CCC[C@H]1C(=O)N[C@@H](CO)C(=O)O)[C@@H](C)O [SEQ ID NO 10, Tza-S-Q-G-T-F-T-S-D-Phg-SKQLESRRAQEFIEWLLATGPESGAPPPS-OH] (H-[Ala(4-thiazolyl)]SQGTFTSD[Phg]SKQLESRRAQEFIEWLLATGPESGAPPPS-OH; N-terminus assumed)",,,0.006 nM,45 nM

# The remaining lines, values ahead:
Solubility (pH7.4) [mg/ml] ([1]; 2 h),solubility at 2 h [1],EC50 [2],EC50 [3],Compound
,,0.001 nM,20 nM,"CC[C@H](C)[C@H](NC(=O)[C@H](Cc1ccccc1)NC(=O)[C@H](CCC(=O)O)NC(=O)[C@H](CCC(N)=O)NC(=O)[C@H](C)NC(=O)[C@H](CCCNC(=N)N)NC(=O)[C@H](CCCNC(=N)N)NC(=O)[C@H](CO)NC(=O)[C@H](CCC(=O)O)NC(=O)[C@H](CC(C)C)NC(=O)[C@H](CCC(N)=O)NC(=O)[C@H](CCCCN)NC(=O)[C@H](CO)NC(=O)[C@H](CC(C)C)NC(=O)[C@H](CC(=O)O)NC(=O)[C@H](CO)NC(=O)[C@@H](NC(=O)[C@H](Cc1ccccc1)NC(=O)[C@@H](NC(=O)CNC(=O)[C@H](CCC(N)=O)NC(=O)[C@H](CO)NC(=O)[C@@H](N)Cc1cscn1)[C@@H](C)O)[C@@H](C)O)C(=O)N[C@@H](CCC(=O)O)C(=O)N[C@@H](Cc1c[nH]c2ccccc12)C(=O)N[C@@H](CC(C)C)C(=O)N[C@@H](CC(C)C)C(=O)N[C@@H](C)C(=O)N[C@H](C(=O)NCC(=O)N1CCC[C@H]1C(=O)N[C@@H](CCC(=O)O)C(=O)N[C@@H](CO)C(=O)NCC(=O)N[C@@H](C)C(=O)N1CCC[C@H]1C(=O)N1CCC[C@H]1C(=O)N1CCC[C@H]1C(=O)N[C@@H](CO)C(=O)O)[C@@H](C)O [SEQ ID NO 12, Tza-SQGTFTSDLSKQLESRRAQEFIEWLLATGPESGAPPPS-OH] (H-[Ala(4-thiazolyl)]SQGTFTSDLSKQLESRRAQEFIEWLLATGPESGAPPPS-OH)"
,,0.0022 nM,5.8 nM,"CC[C@H](C)[C@H](NC(=O)[C@H](Cc1ccccc1)NC(=O)[C@H](CCC(=O)O)NC(=O)[C@H](CCC(N)=O)NC(=O)[C@H](C)NC(=O)[C@H](CCCNC(=N)N)NC(=O)[C@H](CCCNC(=N)N)NC(=O)[C@H](CO)NC(=O)[C@H](CCC(=O)O)NC(=O)[C@H](CC(C)C)NC(=O)[C@H](CCC(N)=O)NC(=O)[C@H](CCCCN)NC(=O)[C@H](CO)NC(=O)[C@@H](NC(=O)[C@H](CC(=O)O)NC(=O)[C@H](CO)NC(=O)[C@@H](NC(=O)[C@H](Cc1ccccc1)NC(=O)[C@@H](NC(=O)CNC(=O)[C@H](CCC(N)=O)NC(=O)[C@H](CO)NC(=O)[C@@H](N)Cc1cscn1)[C@@H](C)O)[C@@H](C)O)[C@@H](C)CC)C(=O)N[C@@H](CCC(=O)O)C(=O)N[C@@H](Cc1c[nH]c2ccccc12)C(=O)N[C@@H](CC(C)C)C(=O)N[C@@H](CC(C)C)C(=O)N[C@@H](C)C(=O)N[C@H](C(=O)NCC(=O)N1CCC[C@H]1C(=O)N[C@@H](CCC(=O)O)C(=O)N[C@@H](CO)C(=O)NCC(=O)N[C@@H](C)C(=O)N1CCC[C@H]1C(=O)N1CCC[C@H]1C(=O)N1CCC[C@H]1C(=O)N[C@@H](CO)C(=O)O)[C@@H](C)O [SEQ ID NO 8, Tza-SQGTFTSDISKQLESRRAQEFIEWLLATGPESGAPPPS-OH]"
,,0.0024 nM,4.19 nM,"CC[C@H](C)[C@H](NC(=O)[C@H](Cc1ccccc1)NC(=O)[C@H](CCC(=O)O)NC(=O)[C@H](CCC(N)=O)NC(=O)[C@H](C)NC(=O)[C@H](CCCNC(=N)N)NC(=O)[C@H](CCCNC(=N)N)NC(=O)[C@H](CO)NC(=O)[C@H](CCC(=O)O)NC(=O)[C@H](CC(C)C)NC(=O)[C@H](CCC(N)=O)NC(=O)[C@H](CCCCN)NC(=O)[C@H](CO)NC(=O)[C@@H](NC(=O)[C@H](CC(=O)O)NC(=O)[C@H](CO)NC(=O)[C@@H](NC(=O)[C@H](Cc1ccccc1)NC(=O)[C@@H](NC(=O)CNC(=O)[C@H](CCC(N)=O)NC(=O)[C@H](CO)NC(=O)[C@@H](N)Cc1cscn1)[C@@H](C)O)[C@@H](C)O)C(C)C)C(=O)N[C@@H](CCC(=O)O)C(=O)N[C@@H](Cc1c[nH]c2ccccc12)C(=O)N[C@@H](CC(C)C)C(=O)N[C@@H](CC(C)C)C(=O)N[C@@H](C)C(=O)N[C@H](C(=O)NCC(=O)N1CCC[C@H]1C(=O)N[C@@H](CCC(=O)O)C(=O)N[C@@H](CO)C(=O)NCC(=O)N[C@@H](C)C(=O)N1CCC[C@H]1C(=O)N1CCC[C@H]1C(=O)N1CCC[C@H]1C(=O)N[C@@H](CO)C(=O)O)[C@@H](C)O [SEQ ID NO 7, Tza-SQGTFTSDVSKQLESRRAQEFIEWLLATGPESGAPPPS-OH] (H-[Ala(4-thiazolyl)]SQGTFTSDVSKQLESRRAQEFIEWLLATGPESGAPPPS-OH; N-terminus assumed)"

# Source: patent publication US9932381B2, “Exendin-4 derivatives as selective glucagon receptor agonists” (priority 2014, dated 2018)
